In brackets after ≈: the same amount, converted by molar mass.
How the values were obtained:
[1] = test system: Aspergillus fumigatus; test: Antifungal activity against Aspergillus fumigatus HIC 6094; type: functional
[2] = test system: Trichophyton rubrum; test: Antifungal activity against Trichophyton rubrum IFO 9185; type: functional
[3] = Inhibition of isocitrate lyase
[4] = test system: Micrococcus luteus; test: Antibacterial activity against Micrococcus luteus IFO 12708; type: functional
[5] = test system: K562; test: Cytotoxicity against human K562 cells; type: functional; conditions: read-out: LC50 (the source's name)
[6] = test system: Proteus vulgaris; test: Antibacterial activity against Proteus vulgaris ATCC 3851; type: functional
[7] = Inhibition of Na+/K+ ATPase
[8] = test system: Salmonella typhimurium; test: Antibacterial activity against Salmonella Typhimurium ATCC 14028; type: functional, Salmonella enterica subsp. enterica serovar Typhimurium; conditions: Salmonella enterica
[9] = test system: Trichophyton mentagrophytes; test: Antifungal activity against Trichophyton mentagrophytes IFO 40996; type: functional
[10] = test system: Escherichia coli; test: Antibacterial activity against Escherichia coli ATCC 35270; type: functional
[11] = test system: Bacillus subtilis; test: Antibacterial activity against Bacillus subtilis ATCC 6633; type: functional
[12] = test system: Staphylococcus aureus; test: Antibacterial activity against Staphylococcus aureus ATCC 6538p; type: functional
[13] = test system: Candida albicans; test: Antifungal activity against Candida albicans ATCC 10231; type: functional

SMILES | MIC [1] [µg/mL] | MIC [2] [µg/mL] | IC50 [3] [µM] | MIC [4] [µg/mL] | CC50 [5] [µM] | MIC [6] [µg/mL] | IC50 [7] [µM] | MIC [8] [µg/mL] | MIC [9] [µg/mL] | MIC [10] [µg/mL] | MIC [11] [µg/mL] | MIC [12] [µg/mL] | MIC [13] [µg/mL]
CC(C)CCCCCCCC/C=C/C[C@H](OS(=O)(=O)O)[C@H](O)[C@H](N)CO | > 100 | > 100 | 24 | 100 (≈ 253 µM) | 8 | 100 (≈ 253 µM) | 21 | 100 (≈ 253 µM) | > 100 | > 100 | 100 (≈ 253 µM) | > 100 | > 100
C[C@@H]1O[C@@H](O[C@H]2C[C@@H](O)[C@]3(CO)[C@H]4[C@H](O)C[C@]5(C)[C@@H](C6=CC(=O)OC6)CC[C@]5(O)[C@@H]4CC[C@]3(O)C2)[C@H](O)[C@H](O)[C@H]1O [OUABAIN] |  |  |  |  |  |  | 4 |  |  |  |  |  | 
COc1cccc2c1C(=O)c1c(O)c3c(c(O)c1C2=O)C[C@@](O)(C(=O)CO)C[C@@H]3O[C@H]1C[C@H](N)[C@H](O)[C@H](C)O1 [DOXORUBICIN] |  |  |  |  | 7 |  |  |  |  |  |  |  | 
CCCCCCCCCCC/C=C/C[C@H](OS(=O)(=O)O)[C@H](O)[C@H](N)CO | 100 (≈ 253 µM) | > 100 | 2 | 25 (≈ 63.2 µM) | 8 | 25 (≈ 63.2 µM) | 25 | 100 (≈ 253 µM) | 50 (≈ 126 µM) | > 100 | 6 (≈ 15.2 µM) | 50 (≈ 126 µM) | 50 (≈ 126 µM)
CCCCCCCCCC/C=C/C[C@H](OS(=O)(=O)O)[C@H](O)[C@H](N)CO | > 100 | > 100 | 20 | 100 (≈ 262 µM) | 7 | 25 (≈ 65.5 µM) | 21 | > 100 | > 100 | > 100 | 12 (≈ 31.5 µM) | > 100 | > 100
O=C(O)CC[N+](=O)[O-] |  |  | 1 |  |  |  |  |  |  |  |  |  | 
CCCCCC[C@H]1C[C@H]1CCCCCCCCCC(=O)OC[C@@H](O)COP(=O)([O-])OCC(O)CO.[Na+] (relative stereo) | > 100 |  | 87 |  | 4 | > 100 | 4 |  |  |  |  | > 100 | 13
CC1(C)S[C@@H]2[C@H](NC(=O)[C@H](N)c3ccccc3)C(=O)N2[C@H]1C(=O)O [AMPICILLIN] |  |  |  | 2 (≈ 5.72 µM) |  | 1 (≈ 2.86 µM) |  | 2 (≈ 5.72 µM) |  | 6 (≈ 17.2 µM) | 2 (≈ 5.72 µM) | 1 (≈ 2.86 µM) | 
C[C@@H]1[C@H](O)[C@@H](C)/C=C/C=C/C=C/C=C/C=C/C=C/C=C/[C@H](O[C@@H]2O[C@H](C)[C@@H](O)[C@H](N)[C@@H]2O)C[C@@H]2O[C@](O)(C[C@@H](O)C[C@@H](O)[C@H](O)CC[C@@H](O)C[C@@H](O)CC(=O)O[C@H]1C)C[C@H](O)[C@H]2C(=O)O [AMPHOTERICIN B] | 1 (≈ 1.08 µM) | 2 (≈ 2.16 µM) |  |  |  |  |  |  | 2 (≈ 2.16 µM) |  |  |  | 1 (≈ 1.08 µM)
